In the series the test system is wild type and sno^+/− mice. The series can be described thus: Tumor susceptibility: survival after weekly carcinogen DMBA treatment. Type of series: in vivo, mouse. The conditions noted are these: DMBA weekly to dorsal surface, observation period of 80 days. On the procedure:
In the next experiment, in order to compare the tumor susceptibility of wild type and sno^+/− mice, the carcinogen 9,10-dimethyl-1,2-benzanthracene (DMBA) was administered every week. […] The major tumor type observed was malignant lymphomas, and fibromas were also found at a lower frequency. Lymphomas in sno^+/− mice were aggressive metastatic malignancies, and generated tumors in the thymus glands [refer to FIGS. 4(b) and (c)]. The fact that these originated from T-cells is due to the tumor cells homogeneously expressing the TCRαβ markers, but not the IgM marker [refer to FIGS. 4(d) and (e)].
DMBA treatments were initiated from the beginning at postnatal day 2-5 and continuing weekly thereafter by administering 50 μl of a solution containing DMBA 1.25 mg per ml acetone to the dorsal surface. Mice were monitored regularly and killed when overall health condition was deteriorated.
At first, 8-10 mice in each cohort were used for collecting histopathological informations, subsequently, the site of tumor and the site of metastatic organ were detected and specified by detailed pathological analysis.

SMILES strings stand for the structures.

As for `Cc1c2ccccc2c(C)c2c1ccc1ccccc12` [DMBA, 9,10-dimethyl-1,2-benzanthracene], the survived this treatment reads like this: (sno^+/− female mice (n=20)) 30%; (sno^+/− male mice (n=20)) 50%. Moreover, the “survival under this treatment” value (wild-type mice (n=40)) is given as “most of the wild-type mice (n=40) survived”.
